Laboratory results: US20260315452A1, “PROTEASE INHIBITORS AND USES THEREOF” (priority 2023, published 2026)
Counter-ions that a name gives are not always drawn.

Legend:
SARS-CoV-2 3CLpro = SARS-CoV-2 3CLpro (Severe acute respiratory syndrome coronavirus 2, UniProt P0DTD1); test: biochemical; conditions: inhibition of SARS-CoV-2 3CLpro; 15 nM 3CLpro, 25 μM fluorogenic substrate, 37° C.; read-out: Inhibitory Activity (IC50)
SARS-CoV-2 = test: Anti-SARS-CoV-2 activity in A549 cells expressing the human ACE2 receptor (inhibition of SARS-CoV-2 replication); type: cell-based; conditions: Severe acute respiratory syndrome coronavirus 2, A549-ACE2, 24 h, read-out: Antiviral Activity (EC50)

Compound	IC50 (SARS-CoV-2 3CLpro) [nM]	EC50 (SARS-CoV-2) [nM]
CNC(=O)c1cc(Br)cc([N+](=O)[O-])c1N[C@@H]1CCCC[C@@H]1NC(=O)c1cncc(C(F)(F)F)c1 [Compound 72, N-((1S, 2R)-2 ((4-bromo-2-(methylcarbamoyl)-6-nitrophenyl)amino)cyclohexyl)-5-(trifluoromethyl)nicotinamide]	1000 to 10000	> 10000
CNC(=O)c1cc(Br)cc([N+](=O)[O-])c1N[C@H]1CN(C(=O)c2cncc3ccccc23)CC12CC2 [Compound 74, (R)-5-bromo-2-((5-(isoquinoline-4-carbonyl)-5-azaspiro[2,4]heptan-7-yl)amino)-N-methyl-3-nitrobenzamide]	100 to 1000	< 100
CNC(=O)c1cc(Br)cc([N+](=O)[O-])c1N[C@@H]1CCCN(C(=O)c2cncc3ccccc23)C1 [Compound 75, (R)-5-bromo-2-((1-(isoquinoline-4-carbonyl)piperidin-3-yl)amino)-N-methyl-3-nitrobenzamide]	< 100	< 100
O=C(NC1CC(F)(F)C1)c1cc(Br)cc(C(F)(F)F)c1N[C@@H]1COCC[C@@H]1NC(=O)c1cncc2ccccc12 [Compound 79, N-((3S, 4S)-3-((4-bromo-2-((3,3-difluorocyclobutyl)carbamoyl)-6-(trifluoromethyl)phenyl)amino)tetrahydro-2H-pyran-4-yl)isoquinoline-4-carboxamide]	< 100	100 to 1000
O=C(NC1CC(F)(F)C1)c1cc(Br)cc(C(F)(F)F)c1N[C@@H]1COCC[C@@H]1NC(=O)c1cncc2cc(F)ccc12 [Compound 80, N-((3S, 4S)-3-((4-bromo-2-((3,3-difluorocyclobutyl)carbamoyl)-6-(trifluoromethyl)phenyl)amino)tetrahydro-2H-pyran-4-yl)-7-fluoroisoquinoline-4-carboxamide]	100 to 1000	100 to 1000
C[C@@H](NC(=O)c1cc(Br)cc([N+](=O)[O-])c1N[C@@H]1CCCN(C(=O)c2cncc3ccccc23)C1)C(F)(F)F [Compound 81, 5-bromo-2-(((R)-1-(isoquinoline-4-carbonyl)piperidin-3-yl)amino)-3-nitro-N-((R)-1,1,1-trifluoropropan-2-yl)benzamide]	< 100	< 100
O=C(NC1CC(F)(F)C1)c1cc(Cl)cc(C(F)(F)F)c1N[C@H]1CN(C(=O)c2cncc3ccccc23)CCC1(F)F [Compound 82, (S)-5-chloro-2-((4,4-difluoro-1-(isoquinoline-4-carbonyl)piperidin-3-yl)amino)-N-(3,3-difluorocyclobutyl)-3-(trifluoromethyl)benzamide]	< 100	< 100
O=C(NC1CC1)c1cc(Cl)cc(C(F)(F)F)c1N[C@H]1CN(C(=O)c2cncc3ccccc23)CCC1(F)F [Compound 83, (S)-5-chloro-N-cyclopropyl-2-((4,4-difluoro-1-(isoquinoline-4-carbonyl)piperidin-3-yl)amino)-3-(trifluoromethyl)benzamide]	< 100	< 100
CNC(=O)c1cc(Cl)cc(C(F)(F)F)c1N[C@H]1CN(C(=O)c2cncc3ccccc23)CCC1(F)F [Compound 84, (S)-5-chloro-2-((4,4-difluoro-1-(isoquinoline-4-carbonyl)piperidin-3-yl)amino)-N-methyl-3-(trifluoromethyl)benzamide]	< 100	< 100
CC(C)(C)NC(=O)c1cc(Br)cc([N+](=O)[O-])c1N[C@@H]1CCCC[C@@H]1NC(=O)c1cncc2ccccc12 [Compound 85, N-((1S, 2R)-2-((4-bromo-2-(tert-butylcarbamoyl)-6-nitrophenyl)amino)cyclohexyl)isoquinoline-4-carboxamide]	100 to 1000	100 to 1000
CNC(=O)c1cc(Br)cc([N+](=O)[O-])c1N[C@H]1CN(C(=O)c2cncc3ccccc23)CC[C@H]1F [Compound 88, 5-bromo-2-(((3S, 4R)-4-fluoro-1-(isoquinoline-4-carbonyl)piperidin-3-yl)amino)-N-methyl-3-nitrobenzamide]	< 100	< 100
CNC(=O)c1cc(Br)cc([N+](=O)[O-])c1N[C@@H]1CN(C)CC[C@@H]1NC(=O)c1cncc2ccccc12 [Compound 89, N-((3R,4S)-3-((4-bromo-2-(methylcarbamoyl)-6-nitrophenyl)amino)-1-methylpiperidin-4-yl)isoquinoline-4-carboxamide]	1000 to 10000	1000 to 10000
O=C(NCC(F)(F)F)c1cc(Cl)cc([N+](=O)[O-])c1N[C@H]1CN(C(=O)c2cncc3ccccc23)CCC1(F)F [Compound 91, (S)-5-chloro-2-((4,4-difluoro-1-(isoquinoline-4-carbonyl)piperidin-3-yl)amino)-3-nitro-N-(2,2,2-trifluoroethyl) benzamide]	< 100	< 100
CNC(=O)c1cc(Cl)cc([N+](=O)[O-])c1N[C@H]1CN(C(=O)c2cncc3ccccc23)CCC1(F)F [Compound 92, (S)-5-chloro-2-((4,4-difluoro-1-(isoquinoline-4-carbonyl)piperidin-3-yl)amino)-N-methyl-3-nitrobenzamide]	< 100	< 100
CN1CC[C@@H](NC(=O)c2cc(Cl)cc([N+](=O)[O-])c2N[C@H]2CN(C(=O)c3cncc4ccccc34)CCC2(F)F)C1 [Compound 93, 5-chloro-2-(((S)-4,4-difluoro-1-(isoquinoline-4-carbonyl)piperidin-3-yl)amino)-N-(1-methylpyrrolidin-3-yl)-3-nitrobenzamide hydrochloride]	< 100	< 100
CN(C)C1CN(C(=O)c2cc(Cl)cc([N+](=O)[O-])c2N[C@H]2CN(C(=O)c3cncc4ccccc34)CCC2(F)F)C1 [Compound 94, (S)-(5-chloro-2-((4,4-difluoro-1-(isoquinoline-4-carbonyl)piperidin-3-yl)amino)-3-nitrophenyl)(3-(dimethylamino)azetidin-1-yl)methanone hydrochloride]	< 100	< 100
CNC1CN(C(=O)c2cc(Br)cc([N+](=O)[O-])c2N[C@H]2CN(C(=O)c3cncc4ccccc34)CCC2(F)F)C1 [Compound 95, (S)-(5-bromo-2-((4,4-difluoro-1-(isoquinoline-4-carbonyl)piperidin-3-yl)amino)-3-nitrophenyl)(3-(methylamino)azetidin-1-yl)methanone hydrochloride]	< 100	< 100
CNC(=O)c1cc(Cl)cc([N+](=O)[O-])c1N[C@H]1CN(C(=O)c2cncc3ccccc23)CC[C@@H]1F [Compound 96, 5-chloro-2-(((3S, 4S)-4-fluoro-1-(isoquinoline-4-carbonyl)piperidin-3-yl)amino)-N-methyl-3-nitrobenzamide]	< 100	< 100
CNC(=O)c1cc(Br)cc([N+](=O)[O-])c1NC(C(C)C)C1CN(C(=O)c2cncc3ccccc23)C1 (stereo not drawn) [Compound 99, 5-bromo-2-((1-(1-(isoquinoline-4-carbonyl)azetidin-3-yl)-2-methylpropyl)amino)-N-methyl-3-nitrobenzamide]	100 to 1000	100 to 1000
CC(C)C(Nc1c(C(=O)NC2CC(F)(F)C2)cc(Br)cc1[N+](=O)[O-])C1CN(C(=O)c2cncc3ccccc23)C1 (stereo not drawn) [Compound 116, 5-bromo-N-(3,3-difluorocyclobutyl)-2-((1-(1-(isoquinoline-4-carbonyl)azetidin-3-yl)-2-methylpropyl)amino)-3-nitrobenzamide]	100 to 1000	100 to 1000
CC(C)C(Nc1c(C(=O)N[C@H](C)C(F)(F)F)cc(Br)cc1[N+](=O)[O-])C1CN(C(=O)c2cncc3ccccc23)C1 (stereo partly drawn) [Compound 124, 5-bromo-2-((1-(1-(isoquinoline-4-carbonyl)azetidin-3-yl)-2-methylpropyl)amino)-3-nitro-N-((R)-1,1,1-trifluoropropan-2-yl)benzamide]	< 100	< 100
O=C(NC1CC1)c1cc(Br)cc([N+](=O)[O-])c1N[C@@H]1CCCN(C(=O)c2cncc3ccccc23)C1 [Compound 125, (R)-5-bromo-N-cyclopropyl-2-((1-(isoquinoline-4-carbonyl)piperidin-3-yl)amino)-3-nitrobenzamide]	< 100	< 100
O=C(NC1CC(F)(F)C1)c1cc(Br)cc([N+](=O)[O-])c1N[C@@H]1COCC[C@@H]1NC(=O)c1cncc2ccccc12 [Compound 126, N-((3S, 4S)-3-((4-bromo-2-((3,3-difluorocyclobutyl)carbamoyl)-6-nitrophenyl)amino)tetrahydro-2H-pyran-4-yl)isoquinoline-4-carboxamide]	< 100	< 100
CNC(=O)c1cc(Br)cc([N+](=O)[O-])c1NC1CCC2(C1)CN(C(=O)c1cncc3ccccc13)C2 (stereo not drawn) [Compound 127, 5-bromo-2-((2-(isoquinoline-4-carbonyl)-2-azaspiro[3, 4]octan-6-yl)amino)-N-methyl-3-nitrobenzamide]	1000 to 10000	> 10000
CNC(=O)c1cc(Br)cc([N+](=O)[O-])c1N1CCC2(CN(C(=O)c3cncc4ccccc34)CC2(F)F)C1 (stereo not drawn) [Compound 129, 5-bromo-2-(9,9-difluoro-7-(isoquinoline-4-carbonyl)-2,7-diazaspiro[4, 4]nonan-2-yl)-N-methyl-3-nitrobenzamide]	100 to 1000	100 to 1000
CNC(=O)c1cc(Br)cc([N+](=O)[O-])c1N[C@@H]1COCC[C@@H]1NC(=O)c1cncc2ccccc12 [Compound 132, N-((3S, 4S)-3-((4-bromo-2-(methylcarbamoyl)-6-nitrophenyl)amino)tetrahydro-2H-pyran-4-yl)isoquinoline-4-carboxamide]	< 100	< 100
O=C(NC1CC1)c1cc(Br)cc([N+](=O)[O-])c1N[C@@H]1COCC[C@@H]1NC(=O)c1cncc2ccccc12 [Compound 133, N-((3S, 4S)-3-((4-bromo-2-(cyclopropylcarbamoyl)-6-nitrophenyl)amino)tetrahydro-2H-pyran-4-yl)isoquinoline-4-carboxamide]	< 100	< 100
